Series [1] has as its system isolated rat heart. Nature of the series: Isolated rat heart infarction study (after p.o. treatment). The class given is in vivo. The settings on record: for Infarct size, % of control: 20 mg/kg p.o. daily, isolated Wistar rat heart, 60 min occlusion, 150-min reperfusion, mean±s.e.m. of 9-10 animals; for decrease of infarct size: 20 mg/kg p.o., isolated rat heart infarction model, versus control. On the procedure:
Fifty male, 10 weeks old Wistar rats weighing 200-250 g were housed under standard conditions (21-23° C., 12 h light-dark cycle) with unlimited access to food (R3 diet, Lactamin AB, Sweden) and water.
Rats were adapted to local conditions for two weeks before the start of treatment. Meldonium dihydrate at a dose of 20 mg/kg, gamma-butyrobetaine at a dose of 20 mg/kg and 3-carboxy-N-ethyl-N,N-dimethylpropan-1-aminium salts at dose of 20 mg/kg were administered p.o. daily for 8 weeks. Control rats received water.
The isolated rat heart experiment was performed essentially as described earlier (Liepinsh et al., J. Cardiovasc. Pharmacol. 2006; 48(6):314-9). Twenty-four hours after the last drug administration hearts were excised and retrogradely perfused via the aorta at a constant pressure with oxygenated Krebs-Henseleit buffer at 37° C. The heart rate, left ventricle end-diastolic pressure and left ventricle developed pressure were continuously recorded. Coronary flow was measured using an ultrasound flow detector (HSE) and the PowerLab 8/30 system from ADInstruments. The hearts were perfused for 20 min to stabilize the hemodynamic functions and then occlusion was performed for 60 min by constricting threads through a plastic tube. Successful occlusion was confirmed by a coronary flow decrease of about 40 percent. Reperfusion was achieved by releasing the threads. At the end of the 150-min reperfusion period, the risk zone was delineated with 0.1% methylene blue. The hearts were then sectioned transversely from the apex to the base in five slices 2 mm in thickness and incubated in 1% triphenyltetrazolium chloride in phosphate buffer (pH 7.4, 37° C.) for 10 min to stain viable tissue red and necrotic tissue white. Computerized planemetric analysis of Sony A900 photographs was performed using Image-Pro Plus 6.3 software to determine the area at risk and area of necrosis expressed as a % of the left ventricle. The obtained values were then used to calculate the infarct size (IS) as a % of risk area according to the formula: Infarct Size=Area of Necrosis/Area at Risk×100%.
The anti-infarction effect of examined substances was investigated in an isolated rat heart infarction model. During occlusion of left coronary artery, the coronary flow in all experimental groups was decreased for 40% (from 11 ml/min to 7 ml/min). Moreover, the drop of developed left ventricular pressure for 50% was observed. […] In reperfusion stage, coronary flow, developed left ventricular pressure, ±dp/dt values were recovered till about 80% of control level. There were no significant differences between control and treatment groups.

The conditions of series [2]: s.c.; cited from earlier work.

Marks after values point to notes of the source that are not given here.

In the case of `C[N+](C)(C)NCCC(=O)[O-]` [Meldonium dihydrate, 3-(2,2,2-Trimethylhydrazinium) propionate dihydrate, reference compound], in series [1], the “Infarct size, % of control” value was 117.9 ± 7.9 % of control.
Consider `CC[N+](C)(C)CCCC(=O)O.O=C([O-])/C=C/C(=O)O` [3-carboxy-N-ethyl-N,N-dimethylpropan-1-aminium (2E)-3-carboxyacrylate], for which, in series [1], the “Infarct size, % of control” value is given as 46.5 ± 7.0*^,#,$ % of control and the “decrease of infarct size” value was 53.5%.
With “3-carboxy-N-ethyl-N,N-dimethylpropan-1-aminium 2-(acetyloxy)benzoate”, in series [1], the “Infarct size, % of control” value was 61.6 ± 6.7*^,#,$ % of control and the “decrease of infarct size” value worked out at 38.4%.
For `CC[N+](C)(C)CCCC(=O)O.O=C([O-])c1cc(=O)[nH]c(=O)[nH]1` [3-carboxy-N-ethyl-N,N-dimethylpropan-1-aminium 2,6-dioxo-1,2,3,6-tetrahydropyrimidine-4-carboxylate], in series [1], the “Infarct size, % of control” value was 60.6 ± 6.7*^,#,$ % of control and the “decrease of infarct size” value is given as 39.4%.
As to `CC[N+](C)(C)CCCC(=O)O` [3-carboxy-N-ethyl-N,N-dimethylpropan-1-aminium dihydrogen phosphate], in series [1], the “Infarct size, % of control” value is given as 56.1 ± 4.4*^,#,$ % of control and the “decrease of infarct size” value is 43.9%.
On to `C[N+](C)(C)CCCC(=O)[O-]` [Gamma-butyrobetaine, γ-Butyrobetaine, reference compound], for which, in series [1], the “Infarct size, % of control” value is 87.6 ± 11.4 % of control and the “decrease of infarct size” value was determined as 12.4%. Also, the LD50 in series [2] was > 7000 mg/kg.
Turning to `CC[N+](C)(C)CCCC(=O)O.O=C([O-])CCC(=O)O` [3-carboxy-N-ethyl-N,N-dimethylpropan-1-aminium 3-carboxypropanoate], in series [1], the “Infarct size, % of control” value was 62.9 ± 4.7*^,#,$ % of control and the “decrease of infarct size” value is 37.1%.

The LD50 is the dose at which mortality reaches 50%.
